The target of this assay is PI3K-alpha (Homo sapiens (Human), UniProt P42336). As to the kind of experiment: HTRF PI3K biochemical assay, alpha isoform. The conditions noted are these: ratio PI3K-alpha IC50 value/PI3K-delta IC50 value.
PI3K-alpha, sequence (P42336 whole entry, looked up, canonical isoform): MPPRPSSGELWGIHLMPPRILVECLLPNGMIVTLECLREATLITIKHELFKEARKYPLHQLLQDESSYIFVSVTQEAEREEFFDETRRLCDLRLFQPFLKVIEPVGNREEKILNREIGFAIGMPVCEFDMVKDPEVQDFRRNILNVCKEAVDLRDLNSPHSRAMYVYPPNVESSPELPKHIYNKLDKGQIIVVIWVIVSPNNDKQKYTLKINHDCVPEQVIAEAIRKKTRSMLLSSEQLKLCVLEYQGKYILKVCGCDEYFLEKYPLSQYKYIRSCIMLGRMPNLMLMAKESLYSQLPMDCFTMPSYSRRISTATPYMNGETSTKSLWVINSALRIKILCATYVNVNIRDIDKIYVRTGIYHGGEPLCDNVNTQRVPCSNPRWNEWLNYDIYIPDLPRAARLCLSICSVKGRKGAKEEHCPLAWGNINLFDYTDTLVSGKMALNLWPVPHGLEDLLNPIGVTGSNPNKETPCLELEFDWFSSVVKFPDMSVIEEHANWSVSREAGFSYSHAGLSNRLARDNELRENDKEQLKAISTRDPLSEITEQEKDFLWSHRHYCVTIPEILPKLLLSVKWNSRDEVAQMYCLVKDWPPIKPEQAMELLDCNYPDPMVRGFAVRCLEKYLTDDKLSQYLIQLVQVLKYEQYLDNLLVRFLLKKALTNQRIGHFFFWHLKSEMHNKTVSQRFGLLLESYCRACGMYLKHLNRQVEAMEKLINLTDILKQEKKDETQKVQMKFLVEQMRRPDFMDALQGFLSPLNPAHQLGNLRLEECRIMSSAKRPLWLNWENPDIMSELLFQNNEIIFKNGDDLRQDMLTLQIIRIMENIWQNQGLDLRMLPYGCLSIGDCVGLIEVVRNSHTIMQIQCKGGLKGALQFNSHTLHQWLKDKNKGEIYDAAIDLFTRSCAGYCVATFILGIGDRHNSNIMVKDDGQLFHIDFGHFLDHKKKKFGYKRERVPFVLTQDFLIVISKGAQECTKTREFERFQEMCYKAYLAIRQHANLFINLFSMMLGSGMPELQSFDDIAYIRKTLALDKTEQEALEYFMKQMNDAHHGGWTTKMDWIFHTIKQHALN
PI3K-alpha, sequence (P27986 whole entry partner, looked up, canonical isoform): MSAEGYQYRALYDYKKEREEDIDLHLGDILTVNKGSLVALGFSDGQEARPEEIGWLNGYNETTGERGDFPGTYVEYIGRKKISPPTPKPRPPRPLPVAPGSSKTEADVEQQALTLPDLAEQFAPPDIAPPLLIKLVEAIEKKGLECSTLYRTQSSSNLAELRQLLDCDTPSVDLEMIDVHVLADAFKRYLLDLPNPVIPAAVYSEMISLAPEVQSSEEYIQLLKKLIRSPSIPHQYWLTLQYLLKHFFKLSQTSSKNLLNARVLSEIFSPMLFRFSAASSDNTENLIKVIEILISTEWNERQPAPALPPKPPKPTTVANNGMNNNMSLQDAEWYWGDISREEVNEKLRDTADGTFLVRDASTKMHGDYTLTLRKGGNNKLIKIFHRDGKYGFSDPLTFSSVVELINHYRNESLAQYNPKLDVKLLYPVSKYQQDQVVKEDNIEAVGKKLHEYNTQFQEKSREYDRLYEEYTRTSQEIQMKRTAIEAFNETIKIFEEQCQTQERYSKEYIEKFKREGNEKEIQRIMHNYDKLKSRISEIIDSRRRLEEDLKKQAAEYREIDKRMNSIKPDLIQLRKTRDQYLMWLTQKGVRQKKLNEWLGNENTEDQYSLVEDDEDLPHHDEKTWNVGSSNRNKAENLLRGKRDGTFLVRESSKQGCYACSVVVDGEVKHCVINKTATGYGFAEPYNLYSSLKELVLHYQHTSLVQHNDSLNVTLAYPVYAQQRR
As for `CCn1ncc(-c2nc3c(O[C@H]4CCN(C(=O)OC)C4)ncnc3n2C)c1C` [Compound 1-36, methyl (3S)-3-{[8-(1-ethyl-5-methyl-1H-pyrazol-4-yl)-9-methyl-9H-purin-6-yl]oxy}pyrrolidine-1-carboxylate], the “Relative Selectivity versus PI3Kalpha” value was more than 10.
In the case of `Cn1c(-c2cncc3ccccc23)nc2c(O[C@H]3CCN(C(=O)OC(C)(C)C)C3)ncnc21` [Compound 1-28, tert-butyl (3S)-3-[(8-isoquinolin-4-yl-9-methyl-9H-purin-6-yl)oxy]pyrrolidine-1-carboxylate], the “Relative Selectivity versus PI3Kalpha” value is more than 10.
As to `CCn1c(-c2cnc(C)nc2)nc2c(O[C@H]3CC[C@@H](NC(=O)C4CC4)CC3)ncnc21` [Compound 9-8, N-(cis-4-{[9-ethyl-8-(2-methylpyrimidin-5-yl)-9H-purin-6-yl]oxy}cyclohexyl)cyclopropane carboxamide], the “Relative Selectivity versus PI3Kalpha” value is more than 10.
Consider `CCn1c(-c2cnc(C)nc2)nc2c(O[C@H]3CCN(C(=O)N4CC5CC5C4)C3)ncnc21` (stereo partly drawn) [Compound 5-22, 6-{[(3S)-1-(3-azabicyclo[3.1.0]hex-3-ylcarbonyl)pyrrolidin-3-yl]oxy}-9-ethyl-8-(2-methylpyrimidin-5-yl)-9H-purine], for which the “Relative Selectivity versus PI3Kalpha” value was more than 10.
As to `CCn1c(-c2cnc(C)nc2)nc2c(O[C@H]3CCN(c4ccccc4C)C3)ncnc21` [Compound 7-16, 9-ethyl-6-{[(3S)-1-(2-methylphenyl)pyrrolidin-3-yl]oxy}-8-(2-methylpyrimidin-5-yl)-9H-purine], the “Relative Selectivity versus PI3Kalpha” value is listed as more than 10.
For the molecule `CCC(=O)N1CC[C@H](Oc2ncnc3c2nc(-c2ccc(C(F)(F)F)nc2)n3C)C1` [Compound 3-2, (S)-1-(3-((9-methyl-8-(6-(trifluoromethyl)pyridin-3-yl)-9H-purin-6-yl)oxy)pyrrolidin-1-yl)propan-1-one], the “Relative Selectivity versus PI3Kalpha” value is reported as more than 10.
Consider `CCn1ncc(-c2nc3c(O[C@H]4CCN(C(=O)c5conc5C)C4)ncnc3n2C)c1C` [Compound 2-51, 8-(1-ethyl-5-methyl-1H-pyrazol-4-yl)-9-methyl-6-({(3S)-1-[(3-methylisoxazol-4-yl)carbonyl]pyrrolidin-3-yl}oxy)-9H-purine], for which the “Relative Selectivity versus PI3Kalpha” value is recorded as more than 10.
With `Cc1n[nH]cc1-c1nc2c(O[C@H]3CCN(C(=O)OC(C)(C)C)C3)ncnc2n1C` [Compound 1-26, tert-butyl (3S)-3-{[9-methyl-8-(3-methyl-1H-pyrazol-4-yl)-9H-purin-6-yl]oxy}pyrrolidine-1-carboxylate], the “Relative Selectivity versus PI3Kalpha” value is more than 10.
With `CCn1c(-c2cnc(C)nc2)nc2c(O[C@H]3CCN(C(=O)N4CC(OC)C4)C3)ncnc21` [Compound 5-13, 9-ethyl-6-({(3S)-1-[(3-methoxyazetidin-1-yl)carbonyl]pyrrolidin-3-yl}oxy)-8-(2-methylpyrimidin-5-yl)-9H-purine], the “Relative Selectivity versus PI3Kalpha” value was more than 10.
For `CCn1ncc(-c2nc3c(O[C@H]4CCN(C(=O)C5CC5)C4)ncnc3n2C)c1C` [Compound 2-16, 6-{[(3S)-1-(cyclopropylcarbonyl)pyrrolidin-3-yl]oxy}-8-(1-ethyl-5-methyl-1H-pyrazol-4-yl)-9-methyl-9H-purine] the value was more than 10; for `CCn1ncc(-c2nc3c(O[C@H]4CCN(C(=O)c5cc(C)n(C)n5)C4)ncnc3n2C)c1C` [Compound 2-59, 6-({(3S)-1-[(1,5-dimethyl-1H-pyrazol-3-yl)carbonyl]pyrrolidin-3-yl}oxy)-8-(1-ethyl-5-methyl-1H-pyrazol-4-yl)-9-methyl-9H-purine], 2.
On to `CCn1c(-c2cnc(C)nc2)nc2c(OC3CN(C(=O)C4CC4)CC3F)ncnc21` (single isomer, unassigned) [Compound 2-137, 6-{[1-(cyclopropylcarbonyl)-(3S,4S)- or (3R,4R)-4-fluoropyrrolidin-3-yl]oxy}-9-ethyl-8-(2-methylpyrimidin-5-yl)-9H-purine], for which the “Relative Selectivity versus PI3Kalpha” value is given as more than 10.
On to `CCn1c(N2CCC(C)C2)nc2c(O[C@H]3CCN(C(=O)OC(C)(C)C)C3)ncnc21` (stereo partly drawn) [Compound 13-8, tert-butyl (3S)-3-{[9-ethyl-8-(3-methylpyrrolidin-1-yl)-9H-purin-6-yl]oxy}pyrrolidine-1-carboxylate], for which the “Relative Selectivity versus PI3Kalpha” value is listed as more than 10.
`CCn1ncc(-c2nc3c(OC4CCN(C(=O)c5cnco5)C4)ncnc3n2C)c1C` (stereo not shown) [Compound 2-7, 8-(1-ethyl-5-methyl-1H-pyrazol-4-yl)-9-methyl-6-{[1-(1,3-oxazol-5-ylcarbonyl)pyrrolidin-3-yl]oxy}-9H-purine]: the “Relative Selectivity versus PI3Kalpha” value was more than 10.
As to `CCn1c(-c2cnc(C)nc2)nc2c(O[C@H]3CCN(C(=O)N4CC(O)C4)C3)ncnc21` [Compound 5-25, 1-{[(3S)-3-{[9-ethyl-8-(2-methylpyrimidin-5-yl)-9H-purin-6-yl]oxy}pyrrolidin-1-yl]carbonyl}azetidin-3-ol], the “Relative Selectivity versus PI3Kalpha” value was more than 10.
Turning to `CCn1c(N2CCC(S(C)(=O)=O)C2)nc2c(O[C@H]3CCN(C(=O)OC(C)(C)C)C3)ncnc21` (stereo partly drawn) [Compound 13-3, tert-butyl (3S)-3-({9-ethyl-8-[3-(methylsulfonyl)pyrrolidin-1-yl]-9H-purin-6-yl}oxy)pyrrolidine-1-carboxylate], the “Relative Selectivity versus PI3Kalpha” value is recorded as more than 10.
Consider `CCn1ncc(-c2nc3c(S[C@H]4CCN(C(=O)c5ccn(C)n5)C4)ncnc3n2C)c1C` [Compound 10-10, (S)-(3-((8-(1-ethyl-5-methyl-1H-pyrazol-4-yl)-9-methyl-9H-purin-6-yl)thio)pyrrolidin-1-yl)(1-methyl-1H-pyrazol-3-yl)methanone], for which the “Relative Selectivity versus PI3Kalpha” value is on record as more than 10.
Take `CCn1c(-c2cnc(C)nc2)nc2c(O[C@H]3CCN(S(=O)(=O)CC)C3)ncnc21` [Compound 4-8, (S)-9-ethyl-6-((1-(ethylsulfonyl)pyrrolidin-3-yl)oxy)-8-(2-methylpyrimidin-5-yl)-9H-purine]: the “Relative Selectivity versus PI3Kalpha” value is given as more than 10.
For `CCC(=O)N1CC[C@H](Oc2ncnc3c2nc(-c2cnc4[nH]nc(C)c4c2)n3C)C1` [Compound 3-10, 9-methyl-8-(3-methyl-1H-pyrazolo[3,4-b]pyridin-5-yl)-6-{[(3S)-1-propanoylpyrrolidin-3-yl]oxy}-9H-purine], the “Relative Selectivity versus PI3Kalpha” value is on record as more than 10.
For `CCn1ncc(-c2nc3c(O[C@H]4CCN(c5ccccn5)C4)ncnc3n2C)c1C` [Compound 7-7, 8-(1-ethyl-5-methyl-1H-pyrazol-4-yl)-9-methyl-6-{[(3S)-1-pyridin-2-ylpyrrolidin-3-yl]oxy}-9H-purine], the “Relative Selectivity versus PI3Kalpha” value was more than 10.
As to `CCn1ncc(-c2nc3c(O[C@H]4CCN(C(=O)c5cc(C(F)(F)F)nn5C)C4)ncnc3n2C)c1C` [Compound 2-61, 8-(1-ethyl-5-methyl-1H-pyrazol-4-yl)-9-methyl-6-{[(3S)-1-{[1-methyl-3-(trifluoromethyl)-1H-pyrazol-5-yl]carbonyl}pyrrolidin-3-yl]oxy}-9H-purine], the “Relative Selectivity versus PI3Kalpha” value is on record as more than 10.
`CCC(=O)N1CC[C@H](Oc2ncnc3c2nc(C(F)(F)F)n3C)C1` [Compound 14-7, 9-methyl-6-{[(3S)-1-propanoylpyrrolidin-3-yl]oxy}-8-(trifluoromethyl)-9H-purine]: the “Relative Selectivity versus PI3Kalpha” value was more than 10.

The values are drawn from patent US9730940B2, “Purine inhibitors of human phosphatidylinositol 3-kinase delta” (priority 2012, dated 2017).
